Experimental data as given in patent US9629817B2 (priority 2005, dated 2017).
Where two headings read alike, the source gives them in different places.

System: Pigs
Settings: riluzole ip 8 mg/kg; for average number of episodes of sustained arrhythmias: VT or VF lasting more than 15 seconds
Method: Pigs of either sex and weighing between 20 and 35 kg were each anaesthetised with thiopentone sodium (10-15 mg/kg iv) and maintained under general anaesthesia with isoflurane (0.5-2% in oxygen). Artificial ventilation was maintained at a volume of 15 ml/kg and a rate of 12 breaths per minute. […] Subsequent to a mid-stemotomy and division of the pericardium, the left anterior coronary artery (LAD) was occluded mid-way along its length by permanent ligation.

[1] = first three hours post commencement of hypoxia
[2] = phase 2 (60-180 minutes post LAD occlusion)

Compound: Nc1nc2ccc(OC(F)(F)F)cc2s1 [riluzole, 2-amino-6-tritluoromethoxybenzothiazole]
- animals which developed any non-sustained arrhythmias [1]: 50%
- animals which developed any sustained arrhythmias [1]: 50%
- number of spontaneous PVCs (single), riluzole vs control group (phase 1a (first 15 minutes of hypoxia following LAD occlusion)): no significant difference
- average number of episodes of sustained arrhythmias (phase 1a): 0.17 episodes per animal
- fall in number of episodes of non-sustained arrhythmias vs control group (phase 1a): 43%
- fall in number of episodes of sustained arrhythmias vs control group (phase 1a): 58%
- number of geminy beats (bigeminy, trigeminy and quadrigeminy) occurring spontaneously, riluzole vs control group (phase 1a): no significant
- number of multiple PVCs occurring spontaneously, riluzole vs control group (phase 1a): no significant difference
- number of spontaneous PVCs (single), riluzole vs control group (phase 1b (15-60 minutes post LAD occlusion)): no significant difference
- average number of episodes of sustained arrhythmias (phase 1b): 0.33 episodes per animal
- fall in number of episodes of non-sustained arrhythmias vs control group (phase 1b): 35%
- fall in number of episodes of sustained arrhythmias vs control group (phase 1b): 86%
- number of geminy beats (bigeminy, trigeminy and quadrigeminy) occurring spontaneously, riluzole vs control group (phase 1b): no significant
- number of multiple PVCs occurring spontaneously, riluzole vs control group (phase 1b): no significant difference
- average number of PVCs (single) [2]: 17
- drop in average number of PVCs (single) vs control group [2]: 91%
- average number of episodes of sustained arrhythmias (phase 2): 0.33 episodes per animal
- average number of geminy beats (phase 2): 0
- average number of multiple PVCs (phase 2): 7
- drop in average number of geminy beats vs control group (phase 2): 100%
- drop in average number of multiple PVCs vs control group (phase 2): 93%
- fall in number of episodes of non-sustained arrhythmias vs control group (phase 2): 92%
- fall in number of episodes of sustained arrhythmias vs control group (phase 2): 90%
